# Tested on: patients with active eosinophilic esophagitis (esophageal eosinophil load)
# Assay: 8 week randomized, double-blind, placebo-controlled study in patients with active eosinophilic esophagitis
# Type: in vivo, human
# Description: The study was a randomized, double-blind, placebo-controlled, single-center study of (5-fluoro-2-methyl-3-quinolin-2-ylmethyl-indo-1-yl)-acetic acid (OC000459) for 8 weeks in patients with active (≧20 eos/hpf and symptoms), corticosteroid-dependent, and/or -resistant eosinophilic esophagitis (EoE). The study compared patients taking 100 mg of OC000459 twice daily with patients taking a placebo twice daily. The study consisted of 26 patients with 14 patients taking OC000459 and 12 patients taking the placebo. Pre- and post-treatment disease-activity was assessed clinically, endoscopically, histologically, and via biomarkers. The primary endpoint was the reduction of the esophageal eosinophil load.
# 5. Free of all medications for EoE (including topical steroids) for at least 2 weeks prior to baseline and free of systemic steroids for at least 90 days before screening. A proton-pump inhibitor is allowed if required for treatment of secondary acid reflux.
# After an 8-week treatment of active EoE with OC000459, the total mean eosinophil number decreased from 114.7 to 74.2 eos/hpf, whereas under placebo, no reduction was observed (from 102.8 to 99.4 eos/hpf).
# A possible explanation for this is that acid reflux may be responsible for the eosinophilic inflammation in the distal esophagus which is consistent with reports that eosinophilia is reduced by PPIs in some patients with EoE (Molina-Infante et al., 2011). […] It is therefore proposed that the combination of CRTH2 antagonists with PPIs will be effective in the treatment of EoE by blocking both the allergic and acid reflux pathways. Three patients were treated with both OC000459 and esomeprazole, either 20 mg or 40 mg once a day.
compound,measurement,setting,value
"Cc1c(Cc2ccc3ccccc3n2)c2cc(F)ccc2n1CC(=O)O [OC000459, (5-fluoro-2-methyl-3-quinolin-2-ylmethyl-indo-1-yl)-acetic acid]","effect on eosinophil load, proximal versus distal esophagus","8 weeks, 100 mg twice daily, compared to placebo (FIG. 1)",more pronounced in the proximal upper esophagus than in the distal esophagus
same,eosinophilic load in the distal esophagus,"patients with EoE, 8 weeks",not
same,eosinophilic load in the proximal esophagus,"patients with EoE, 8 weeks",reduces eosinophilic load
same,"total mean eosinophil number, after 8-week treatment","patients with active EoE, 100 mg twice daily, 8 weeks",74.2 eos/hpf
same,"total mean eosinophil number, before treatment","patients with active EoE, baseline, 100 mg twice daily group",114.7 eos/hpf
